Test results reported in ChEMBL document CHEMBL1146350, “Synthesis of some new bioactive 3-amino-2-mercapto-5,6,7,8-tetrahydro[1]benzothieno[2,3-d]pyrimidin-4(3H)-one derivatives” (2007).
Values after ≈ are worked out from the molar mass of the structure shown. Active and inactive are the calls of the source. No cut-off for these calls is given here.

Experiments:
Escherichia coli = assay: Antibacterial activity against Escherichia coli ATCC 25922 by disc diffusion method; format: functional; details: for MIC: Escherichia coli, ATCC 25922
Pseudomonas aeruginosa = assay: Antibacterial activity against Pseudomonas aeruginosa ATCC 27853 by disc diffusion method; format: functional; details: for MIC: Pseudomonas aeruginosa, ATCC 27853
Staphylococcus aureus = assay: Antibacterial activity against Staphylococcus aureus ATCC 25923 by disc diffusion method; format: functional
Klebsiella pneumoniae = assay: Antibacterial activity against Klebsiella pneumoniae by disc diffusion method; format: functional; details: for MIC: Klebsiella pneumoniae
Talaromyces marneffei = assay: Antifungal activity against Penicillium marneffei by serial plate dilution method; format: functional; details: for MIC: Talaromyces marneffei
Aspergillus flavus = assay: Antifungal activity against Aspergillus flavus NCIM 524 by serial plate dilution method; format: functional; details: for MIC: Aspergillus flavus, NCIM 524
Aspergillus fumigatus = assay: Antifungal activity against Aspergillus fumigatus NCIM 902 by serial plate dilution method; format: functional; details: for MIC: Aspergillus fumigatus, NCIM 902
Trichophyton benhamiae = assay: Antifungal activity against Trichophyton mentagrophytes by serial plate dilution method; format: functional, Arthroderma benhamiae; details: for MIC: Trichophyton benhamiae
Rattus norvegicus = assay: Antiinflammatory activity in Wister Albino rat assessed as inhibition of paw edema at 50 mg/kg, po after 3hrs; format: functional
Mus musculus [1] = assay: Anticonvulsant activity in Swiss Albino mouse assessed as duration of seizure at 2 mg/kg, po by PTZ induced seizure test; format: functional
Mus musculus [2] = assay: Anticonvulsant activity in Swiss Albino mouse assessed as duration of seizure at 50 mg/kg, po by PTZ induced seizure test; format: functional
Mus musculus [3] = assay: Anticonvulsant activity in Swiss Albino mouse assessed as mortality at 50 mg/kg, po by PTZ induced seizure test; format: functional, organism-based; design: dose 50 mg/kg
[4] = Staphylococcus aureus, ATCC 25923, read-out: MIC

| Structure (SMILES) | inhibition zone (IZ) (Escherichia coli) | MIC (Escherichia coli) | inhibition zone (IZ) (Pseudomonas aeruginosa) | MIC (Pseudomonas aeruginosa) | inhibition zone (IZ) (Staphylococcus aureus) | MIC (Staphylococcus aureus; [4]) | inhibition zone (IZ) (Klebsiella pneumoniae) | MIC (Klebsiella pneumoniae) | inhibition zone (IZ) (Talaromyces marneffei) | MIC (Talaromyces marneffei) | inhibition zone (IZ) (Aspergillus flavus) | MIC (Aspergillus flavus) | inhibition zone (IZ) (Aspergillus fumigatus) | MIC (Aspergillus fumigatus) | inhibition zone (IZ) (Trichophyton benhamiae) | MIC (Trichophyton benhamiae) | inhibition in vivo at 50 mg/kg (Rattus norvegicus) | Activity (Mus musculus [1]) | Activity (Mus musculus [2]) | Activity (Mus musculus [3]) | also measured |
| --- | --- | --- | --- | --- | --- | --- | --- | --- | --- | --- | --- | --- | --- | --- | --- | --- | --- | --- | --- | --- | --- |
| Nn1c(SCC(=O)c2ccnc(Cl)c2)nc2sc3c(c2c1=O)CCCC3 | 8 mm | > 100 µg/mL | 8 mm | > 100 µg/mL | 10 mm | 80 µg/mL (≈ 197 µM) | 10 mm | 80 µg/mL (≈ 197 µM) | 6 mm | > 100 µg/mL | 6 mm | > 100 µg/mL | 10 mm | 80 µg/mL (≈ 197 µM) | 8 mm | > 100 µg/mL | – | – | – | – | – |
| O=c1c2c3c(sc2nc2sc(Cc4ccccc4)nn12)CCCC3 | 10 mm | 80 µg/mL (≈ 226 µM) | 10 mm | 80 µg/mL (≈ 226 µM) | 8 mm | > 100 µg/mL | 8 mm | > 100 µg/mL | 6 mm | > 100 µg/mL | 10 mm | 80 µg/mL (≈ 226 µM) | 6 mm | > 100 µg/mL | 6 mm | > 100 µg/mL | – | – | – | – | – |
| Nn1c(SCC(=O)c2ccccc2)nc2sc3c(c2c1=O)CCCC3 | 8 mm | > 100 µg/mL | 8 mm | > 100 µg/mL | 18 mm | 12.5 µg/mL (≈ 33.6 µM) | 8 mm | > 100 µg/mL | 6 mm | > 100 µg/mL | 10 mm | 80 µg/mL (≈ 215 µM) | 8 mm | > 100 µg/mL | 8 mm | > 100 µg/mL | 4.44% | – | – | – | – |
| Nn1c(SCC(=O)c2ccc(Cl)cc2)nc2sc3c(c2c1=O)CCCC3 | 8 mm | > 100 µg/mL | 18 mm | 12.5 µg/mL (≈ 30.8 µM) | 8 mm | > 100 µg/mL | 6 mm | > 100 µg/mL | 6 mm | > 100 µg/mL | 6 mm | > 100 µg/mL | 8 mm | > 100 µg/mL | 8 mm | > 100 µg/mL | – | 400 s | 255 s | inactive | – |
| CN[C@@H]1[C@H](O[C@H]2[C@H](O[C@H]3[C@H](O)[C@@H](O)[C@H](N=C(N)N)[C@@H](O)[C@@H]3N=C(N)N)O[C@@H](C)[C@]2(O)C=O)O[C@@H](CO)[C@H](O)[C@H]1O (stereo in doubt) [STREPTOMYCIN] | 20 mm | < 6.25 µg/mL | 24 mm | < 6.25 µg/mL | 21 mm | – | 24 mm | < 6.25 µg/mL | – | – | – | – | – | – | – | – | – | – | – | – | MIC (Staphylococcus aureus): <6.25 ug/sq.cm |
| O=c1c2c3c(sc2nc2sc(CCl)nn12)CCCC3 | – | – | – | – | – | – | – | – | – | – | – | – | – | – | – | – | – | 70 s | 450 s | inactive | – |
| CCCc1nn2c(=O)c3c4c(sc3nc2s1)CCCC4 | 18 mm | 10 µg/mL (≈ 32.7 µM) | 22 mm | 10 µg/mL (≈ 32.7 µM) | 20 mm | 10 µg/mL (≈ 32.7 µM) | 26 mm | 6.25 µg/mL (≈ 20.5 µM) | 19 mm | 12.5 µg/mL (≈ 40.9 µM) | 28 mm | < 6.25 µg/mL | 26 mm | < 6.25 µg/mL | 6 mm | > 100 µg/mL | 30.8% | 73 s | 75 s | inactive | – |
| Cc1cccc(-c2nn3c(=O)c4c5c(sc4nc3s2)CCCC5)c1 | 8 mm | > 100 µg/mL | 20 mm | 10 µg/mL (≈ 28.3 µM) | 20 mm | 10 µg/mL (≈ 28.3 µM) | 10 mm | 80 µg/mL (≈ 226 µM) | 18 mm | 12.5 µg/mL (≈ 35.4 µM) | 6 mm | > 100 µg/mL | 18 mm | 12.5 µg/mL (≈ 35.4 µM) | 4 mm | > 100 µg/mL | 51.1% | 51 s | 220 s | inactive | – |
| OC(Cn1cncn1)(Cn1cncn1)c1ccc(F)cc1F [FLUCONAZOLE] | – | – | – | – | – | – | – | – | 21 mm | < 6.25 µg/mL | 18 mm | < 6.25 µg/mL | 21 mm | < 6.25 µg/mL | 19 mm | < 6.25 µg/mL | – | – | – | – | – |
| O=c1c2c3c(sc2nc2sc(=S)[nH]n12)CCCC3 | – | – | – | – | – | – | – | – | – | – | – | – | – | – | – | – | 7.69% | 56 s | 39 s | inactive | – |
| COc1ccc(C(=O)CSc2nc3sc4c(c3c(=O)n2N)CCCC4)cc1 | 8 mm | > 100 µg/mL | 8 mm | > 100 µg/mL | 8 mm | > 100 µg/mL | 18 mm | 12.5 µg/mL (≈ 31.1 µM) | 8 mm | > 100 µg/mL | 12 mm | 80 µg/mL (≈ 199 µM) | 16 mm | 12.5 µg/mL (≈ 31.1 µM) | 4 mm | > 100 µg/mL | – | 41 s | 450 s | inactive | – |
| Nn1c(SCC(=O)c2cc3ccccc3oc2=O)nc2sc3c(c2c1=O)CCCC3 | 18 mm | 12.5 µg/mL (≈ 28.4 µM) | 8 mm | > 100 µg/mL | 22 mm | 6.25 µg/mL (≈ 14.2 µM) | 22 mm | < 6.25 µg/mL | 6 mm | > 100 µg/mL | 12 mm | 80 µg/mL (≈ 182 µM) | 8 mm | > 100 µg/mL | 8 mm | > 100 µg/mL | 6.67% | 56 s | 30 s | inactive | – |
| O=c1c2c3c(sc2nc2sc(-c4ccccc4)nn12)CCCC3 | 9 mm | 100 µg/mL (≈ 295 µM) | 18 mm | 60 µg/mL (≈ 177 µM) | 18 mm | 60 µg/mL (≈ 177 µM) | 16 mm | 60 µg/mL (≈ 177 µM) | 16 mm | 12.5 µg/mL (≈ 36.8 µM) | 7 mm | > 100 µg/mL | 18 mm | 12.5 µg/mL (≈ 36.8 µM) | 7 mm | > 100 µg/mL | 24.4% | 58 s | 65 s | inactive | – |
| O=c1c2c3c(sc2nc2sc(-c4cc(Cl)cc(Cl)c4)nn12)CCCC3 | 8 mm | > 100 µg/mL | 8 mm | > 100 µg/mL | 8 mm | > 100 µg/mL | 6 mm | > 100 µg/mL | 5 mm | > 100 µg/mL | 6 mm | > 100 µg/mL | 5 mm | > 100 µg/mL | 6 mm | > 100 µg/mL | – | – | – | – | – |
| CCc1nn2c(=O)c3c4c(sc3nc2s1)CCCC4 | 10 mm | 80 µg/mL (≈ 275 µM) | 18 mm | 10 µg/mL (≈ 34.3 µM) | 8 mm | > 100 µg/mL | 22 mm | 10 µg/mL (≈ 34.3 µM) | 6 mm | > 100 µg/mL | 8 mm | > 100 µg/mL | 6 mm | > 100 µg/mL | 6 mm | > 100 µg/mL | 51.1% | 110 s | 185 s | inactive | – |
| O=c1c2c3c(sc2nc2sc(-c4ccc([N+](=O)[O-])cc4)nn12)CCCC3 | 8 mm | > 100 µg/mL | 9 mm | 100 µg/mL (≈ 260 µM) | 8 mm | > 100 µg/mL | 20 mm | 10 µg/mL (≈ 26 µM) | 6 mm | > 100 µg/mL | 10 mm | 80 µg/mL (≈ 208 µM) | 5 mm | > 100 µg/mL | 6 mm | > 100 µg/mL | 48.9% | 56 s | 40 s | inactive | – |
| Nn1c(SCC(=O)c2ccc(O)c(O)c2)nc2sc3c(c2c1=O)CCCC3 | 10 mm | 80 µg/mL (≈ 198 µM) | 16 mm | 60 µg/mL (≈ 149 µM) | 16 mm | 60 µg/mL (≈ 149 µM) | 10 mm | 80 µg/mL (≈ 198 µM) | 6 mm | > 100 µg/mL | 6 mm | > 100 µg/mL | 8 mm | > 100 µg/mL | 8 mm | > 100 µg/mL | – | 62 s | 270 s | inactive | – |
